Source: patent US12304890B2, “R-type pyridyloxycarboxylic acid, salt and ester derivative thereof, and preparation method therefor, and herbicidal composition and application thereof” (Qingdao Kingagroot Chemical Compound Co., Ltd., priority 2018, dated 2025)

Legend:
Format in all cases: in vivo
[1] = test system: Monocotyledonous and dicotyledonous weed seeds and main crop seeds; experiment: Post-emergence test experiment, other weeds and crops (Table 4, 1000 g a.i./ha); details: 3 weeks in greenhouse, fresh weight inhibition
In short: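 Weed and crop seeds (wheat, corn, rice, soybean, cotton, oilseed, millet, sorghum) sown in soil pots in a greenhouse and sprayed at 2-3 leaf stage, 2 weeks after sowing. Compound in acetone/tween-80 with methyl oleate concentrate (1.5 L/ha) as synergist. Effect recorded as fresh-weight growth inhibition rate.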

Digitaria sanguinalis = experiment: Post-emergence test experiment, Digitaria sanguinalis; details: 1000 g a.i./ha, 3 weeks in greenhouse, fresh weight inhibition
Experimental: (§1) The above described growth inhibition rate is fresh weight inhibition rate.
(§2) Post-emergence test experiment: Monocotyledonous and dicotyledonous weed seeds and main crop seeds (i. e. wheat, corn, rice, soybean, cotton, oilseed, millet and sorghum.) were put into a plastic pot loaded with soil. Then covered with 0.5-2 cm soil, the seeds were allowed to grow in good greenhouse environment. The test plants were treated at 2-3 leaf stage 2 weeks after sowing. The test compounds of the invention were dissolved with acetone respectively, then added with tween-80, and using 1.5 liters per hectare of an emulsible concentrate of methyl oleate as a synergist, and diluted by certain amount of water to certain concentration. The solution was sprayed to the plants with a sprayer. Then the plants were cultured for 3 weeks in the greenhouse, and the experiment result of weed controlling effect was listed in tables 4-5.

Echinochloa crusgalli = experiment: Post-emergence test experiment, Echinochloa crusgalli; details: 1000 g a.i./ha, 3 weeks in greenhouse, fresh weight inhibition
Experimental: as §1, §2

| SMILES | Activity level (growth inhibition rate), Abutilon theophrasti Medic. [1] | Activity level (growth inhibition rate), Galium aparine [1] | Activity level (growth inhibition rate), Monochoria Vaginalis [1] | Activity level (growth inhibition rate), Digitaria sanguinalis (Digitaria sanguinalis) | Activity level (growth inhibition rate), Echinochloa crusgalli (Echinochloa crusgalli) |
| --- | --- | --- | --- | --- | --- |
| CCCC(C)SC(=O)[C@@H](C)Oc1nc(F)c(Cl)c(N)c1Cl (stereo partly drawn) [Compound 2-94] | 5 (Level 5: the growth inhibition rate is greater than 85%) | 5 (Level 5: the growth inhibition rate is greater than 85%) | 5 (Level 5: the growth inhibition rate is greater than 85%) | 5 (Level 5: the growth inhibition rate is greater than 85%) | 5 (Level 5: the growth inhibition rate is greater than 85%) |
| CC(C)C(C)OC(=O)[C@@H](C)Oc1nc(F)c(Cl)c(N)c1Cl (stereo partly drawn) [Compound 2-95] | 5 (Level 5: the growth inhibition rate is greater than 85%) | 5 (Level 5: the growth inhibition rate is greater than 85%) | 5 (Level 5: the growth inhibition rate is greater than 85%) | 5 (Level 5: the growth inhibition rate is greater than 85%) | 5 (Level 5: the growth inhibition rate is greater than 85%) |
| CC(C)C(C)SC(=O)[C@@H](C)Oc1nc(F)c(Cl)c(N)c1Cl (stereo partly drawn) [Compound 2-96] | 5 (Level 5: the growth inhibition rate is greater than 85%) | 5 (Level 5: the growth inhibition rate is greater than 85%) | 5 (Level 5: the growth inhibition rate is greater than 85%) | 5 (Level 5: the growth inhibition rate is greater than 85%) | 5 (Level 5: the growth inhibition rate is greater than 85%) |
| CCC(CC)OC(=O)[C@@H](C)Oc1nc(F)c(Cl)c(N)c1Cl [Compound 2-97] | 5 (Level 5: the growth inhibition rate is greater than 85%) | 5 (Level 5: the growth inhibition rate is greater than 85%) | 5 (Level 5: the growth inhibition rate is greater than 85%) | 5 (Level 5: the growth inhibition rate is greater than 85%) | 5 (Level 5: the growth inhibition rate is greater than 85%) |
| CCC(CC)SC(=O)[C@@H](C)Oc1nc(F)c(Cl)c(N)c1Cl [Compound 2-98] | 5 (Level 5: the growth inhibition rate is greater than 85%) | 5 (Level 5: the growth inhibition rate is greater than 85%) | 5 (Level 5: the growth inhibition rate is greater than 85%) | 5 (Level 5: the growth inhibition rate is greater than 85%) | 5 (Level 5: the growth inhibition rate is greater than 85%) |
| CCC(C)(C)OC(=O)C(C)Oc1nc(F)c(Cl)c(N)c1Cl (stereo not drawn) [Compound 2-99] | 5 (Level 5: the growth inhibition rate is greater than 85%) | 5 (Level 5: the growth inhibition rate is greater than 85%) | 5 (Level 5: the growth inhibition rate is greater than 85%) | 5 (Level 5: the growth inhibition rate is greater than 85%) | 5 (Level 5: the growth inhibition rate is greater than 85%) |
| CCC(C)(C)SC(=O)C(C)Oc1nc(F)c(Cl)c(N)c1Cl (stereo not drawn) [Compound 2-100] | 5 (Level 5: the growth inhibition rate is greater than 85%) | 5 (Level 5: the growth inhibition rate is greater than 85%) | 5 (Level 5: the growth inhibition rate is greater than 85%) | 5 (Level 5: the growth inhibition rate is greater than 85%) | 5 (Level 5: the growth inhibition rate is greater than 85%) |
| CCCCCCOC(=O)[C@@H](C)Oc1nc(F)c(Cl)c(N)c1Cl [Compound 2-101] | 5 (Level 5: the growth inhibition rate is greater than 85%) | 5 (Level 5: the growth inhibition rate is greater than 85%) | 5 (Level 5: the growth inhibition rate is greater than 85%) | 5 (Level 5: the growth inhibition rate is greater than 85%) | 5 (Level 5: the growth inhibition rate is greater than 85%) |
| CCCCCCSC(=O)[C@@H](C)Oc1nc(F)c(Cl)c(N)c1Cl [Compound 2-102] | 5 (Level 5: the growth inhibition rate is greater than 85%) | 5 (Level 5: the growth inhibition rate is greater than 85%) | 5 (Level 5: the growth inhibition rate is greater than 85%) | 5 (Level 5: the growth inhibition rate is greater than 85%) | 5 (Level 5: the growth inhibition rate is greater than 85%) |
| CCCC(C)CSC(=O)[C@@H](C)Oc1nc(F)c(Cl)c(N)c1Cl (stereo partly drawn) [Compound 2-104] | 5 (Level 5: the growth inhibition rate is greater than 85%) | 5 (Level 5: the growth inhibition rate is greater than 85%) | 5 (Level 5: the growth inhibition rate is greater than 85%) | 5 (Level 5: the growth inhibition rate is greater than 85%) | 5 (Level 5: the growth inhibition rate is greater than 85%) |
| CCC(C)CCOC(=O)[C@@H](C)Oc1nc(F)c(Cl)c(N)c1Cl (stereo partly drawn) [Compound 2-105] | 5 (Level 5: the growth inhibition rate is greater than 85%) | 5 (Level 5: the growth inhibition rate is greater than 85%) | 5 (Level 5: the growth inhibition rate is greater than 85%) | 5 (Level 5: the growth inhibition rate is greater than 85%) | 5 (Level 5: the growth inhibition rate is greater than 85%) |
| CCC(C)CCSC(=O)[C@@H](C)Oc1nc(F)c(Cl)c(N)c1Cl (stereo partly drawn) [Compound 2-106] | 5 (Level 5: the growth inhibition rate is greater than 85%) | 5 (Level 5: the growth inhibition rate is greater than 85%) | 5 (Level 5: the growth inhibition rate is greater than 85%) | 5 (Level 5: the growth inhibition rate is greater than 85%) | 5 (Level 5: the growth inhibition rate is greater than 85%) |
